# In PubChem BioAssay AID2060616 (Molecular Pharmacology Branch, DTP, NCI, 2025):
# System: 377384-186-R-J1-PDC complex spheroid viability
# Assay: Anticancer human tumor 377384-186-R-J1-PDC patient-derived pancreatic carcinoma cell line growth inhibition [CLK]
# Conditions: for IC50: curve of first compound; for viability, T/C: stronger effect = lower value
# Summary of the method: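 Multi-cell-type spheroids combined patient-derived tumor cells with HUVEC endothelial cells and human mesenchymal stem cells. Paired agents were dosed in half-log steps down from about clinical Cmax, or from 10 microM where Cmax was unknown.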
# 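Also: spheroids exposed to agents for 7 days before reading.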
# 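For viability, T/C in this document: luminescence signal used as a stand-in for viable cells.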
compound,measurement,setting,value
CC(C)CC(NC(=O)C(Cc1ccccc1)NC(=O)c1cnccn1)B(O)O (centres undefined) + CN1CCN(c2cc(C(=O)Nc3cc4cc(-c5cnn(C)c5)ccc4cn3)ccn2)CC1,IC50,second compound 0.0316 µM,1.66 nM
same,IC50,second compound 0.1 µM,1.65 nM
same,IC50,second compound 0.316 µM,< 0.949 nM
same,IC50,second compound 1 µM,< 0.949 nM
same,IC50,second compound 3.16 µM,< 0.949 nM
same,IC50,second compound 10 µM,< 0.949 nM
same,"viability, T/C","second compound 0.0316 µM, first compound 0.000949 µM",95.5%
same,"viability, T/C","second compound 0.0316 µM, first compound 0.003 µM",2.33%
same,"viability, T/C","second compound 0.0316 µM, first compound 0.00949 µM",0.36%
same,"viability, T/C","second compound 0.0316 µM, first compound 0.03 µM",0.23%
same,"viability, T/C","second compound 0.0316 µM, first compound 0.0949 µM",0.25%
same,"viability, T/C","second compound 0.0316 µM, first compound 0.3 µM",0.18%
same,"viability, T/C","second compound 0.1 µM, first compound 0.000949 µM",94.8%
same,"viability, T/C","second compound 0.1 µM, first compound 0.003 µM",1.28%
same,"viability, T/C","second compound 0.1 µM, first compound 0.00949 µM",0.36%
same,"viability, T/C","second compound 0.1 µM, first compound 0.03 µM",0.22%
same,"viability, T/C","second compound 0.1 µM, first compound 0.0949 µM",0.23%
same,"viability, T/C","second compound 0.1 µM, first compound 0.3 µM",0.22%
same,"viability, T/C","second compound 0.316 µM, first compound 0.000949 µM",22.2%
same,"viability, T/C","second compound 0.316 µM, first compound 0.003 µM",1.48%
same,"viability, T/C","second compound 0.316 µM, first compound 0.00949 µM",0.19%
same,"viability, T/C","second compound 0.316 µM, first compound 0.03 µM",0.21%
same,"viability, T/C","second compound 0.316 µM, first compound 0.0949 µM",0.28%
same,"viability, T/C","second compound 0.316 µM, first compound 0.3 µM",2.08%
same,"viability, T/C","second compound 1 µM, first compound 0.000949 µM",0.64%
same,"viability, T/C","second compound 1 µM, first compound 0.003 µM",0.47%
same,"viability, T/C","second compound 1 µM, first compound 0.00949 µM",0.35%
same,"viability, T/C","second compound 1 µM, first compound 0.03 µM",0.22%
same,"viability, T/C","second compound 1 µM, first compound 0.0949 µM",0.4%
same,"viability, T/C","second compound 1 µM, first compound 0.3 µM",0.32%
same,"viability, T/C","second compound 3.16 µM, first compound 0.000949 µM",1.01%
same,"viability, T/C","second compound 3.16 µM, first compound 0.003 µM",1.51%
same,"viability, T/C","second compound 3.16 µM, first compound 0.00949 µM",0.92%
same,"viability, T/C","second compound 3.16 µM, first compound 0.03 µM",0.56%
same,"viability, T/C","second compound 3.16 µM, first compound 0.0949 µM",0.48%
same,"viability, T/C","second compound 3.16 µM, first compound 0.3 µM",1.78%
same,"viability, T/C","second compound 10 µM, first compound 0.000949 µM",0.25%
same,"viability, T/C","second compound 10 µM, first compound 0.003 µM",0.32%
same,"viability, T/C","second compound 10 µM, first compound 0.00949 µM",0.24%
same,"viability, T/C","second compound 10 µM, first compound 0.03 µM",0.24%
same,"viability, T/C","second compound 10 µM, first compound 0.0949 µM",0.43%
same,"viability, T/C","second compound 10 µM, first compound 0.3 µM",1.64%
O=C(c1cc(Cc2n[nH]c(=O)c3ccccc23)ccc1F)N1CCN(C(=O)C2CC2)CC1 + CN1CCN(c2cc(C(=O)Nc3cc4cc(-c5cnn(C)c5)ccc4cn3)ccn2)CC1,IC50,second compound 0.0316 µM,> 10000 nM
same,IC50,second compound 0.1 µM,6680 nM
same,IC50,second compound 0.316 µM,< 31.6 nM
same,IC50,second compound 1 µM,< 31.6 nM
same,IC50,second compound 3.16 µM,< 31.6 nM
same,IC50,second compound 10 µM,< 31.6 nM
same,"viability, T/C","second compound 0.0316 µM, first compound 0.0316 µM",87.8%
same,"viability, T/C","second compound 0.0316 µM, first compound 0.1 µM",85.3%
same,"viability, T/C","second compound 0.0316 µM, first compound 0.316 µM",81%
same,"viability, T/C","second compound 0.0316 µM, first compound 1 µM",77.7%
same,"viability, T/C","second compound 0.0316 µM, first compound 3.16 µM",65.1%
same,"viability, T/C","second compound 0.0316 µM, first compound 10 µM",52.7%
same,"viability, T/C","second compound 0.1 µM, first compound 0.0316 µM",83.9%
same,"viability, T/C","second compound 0.1 µM, first compound 0.1 µM",89.8%
same,"viability, T/C","second compound 0.1 µM, first compound 0.316 µM",77%
same,"viability, T/C","second compound 0.1 µM, first compound 1 µM",78.5%
same,"viability, T/C","second compound 0.1 µM, first compound 3.16 µM",63.3%
same,"viability, T/C","second compound 0.1 µM, first compound 10 µM",42.6%
same,"viability, T/C","second compound 0.316 µM, first compound 0.0316 µM",24%
same,"viability, T/C","second compound 0.316 µM, first compound 0.1 µM",32.5%
same,"viability, T/C","second compound 0.316 µM, first compound 0.316 µM",27.3%
same,"viability, T/C","second compound 0.316 µM, first compound 1 µM",27.1%
same,"viability, T/C","second compound 0.316 µM, first compound 3.16 µM",24.1%
same,"viability, T/C","second compound 0.316 µM, first compound 10 µM",22.7%
same,"viability, T/C","second compound 1 µM, first compound 0.0316 µM",1.23%
same,"viability, T/C","second compound 1 µM, first compound 0.1 µM",1.25%
same,"viability, T/C","second compound 1 µM, first compound 0.316 µM",1.1%
same,"viability, T/C","second compound 1 µM, first compound 1 µM",1.53%
same,"viability, T/C","second compound 1 µM, first compound 3.16 µM",1.47%
same,"viability, T/C","second compound 1 µM, first compound 10 µM",0.93%
same,"viability, T/C","second compound 3.16 µM, first compound 0.0316 µM",0.4%
same,"viability, T/C","second compound 3.16 µM, first compound 0.1 µM",0.39%
same,"viability, T/C","second compound 3.16 µM, first compound 0.316 µM",0.42%
same,"viability, T/C","second compound 3.16 µM, first compound 1 µM",0.45%
same,"viability, T/C","second compound 3.16 µM, first compound 3.16 µM",0.37%
same,"viability, T/C","second compound 3.16 µM, first compound 10 µM",1.27%
same,"viability, T/C","second compound 10 µM, first compound 0.0316 µM",0.42%
same,"viability, T/C","second compound 10 µM, first compound 0.1 µM",1.09%
same,"viability, T/C","second compound 10 µM, first compound 0.316 µM",1.28%
same,"viability, T/C","second compound 10 µM, first compound 1 µM",0.44%
same,"viability, T/C","second compound 10 µM, first compound 3.16 µM",0.49%
same,"viability, T/C","second compound 10 µM, first compound 10 µM",0.38%
